Experimental data as given in PubChem BioAssay (NCI).
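Where inhibition never reached the appropriate level, the endpoint shown equals the highest concentration tested. Otherwise, values were interpolated linearly from a five-concentration, 48-hour dose response in 96-well plates. Abbreviation: GI50, concentration required for 50% inhibition of growth. TGI denotes the concentration required for complete inhibition of growth.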

Columns and labels:
Experiment in all cases: growth of human tumour cells (NCI), 48 h
786-0 renal = system: 786-0 renal
A498 renal = system: A498 renal
A549 NSCLC = system: A549 NSCLC
ACHN renal = system: ACHN renal
BT-549 breast = system: BT-549 breast
CAKI-1 renal = system: CAKI-1 renal
COLO 205 colon = system: COLO 205 colon
DU-145 prostate = system: DU-145 prostate
EKVX NSCLC = system: EKVX NSCLC
HCC-2998 colon = system: HCC-2998 colon
HCT-116 colon = system: HCT-116 colon
HCT-15 colon = system: HCT-15 colon
HL-60(TB) leukemia = system: HL-60(TB) leukemia
HOP-62 NSCLC = system: HOP-62 NSCLC
HS 578T breast = system: HS 578T breast
IGROV1 ovarian = system: IGROV1 ovarian
K-562 leukemia = system: K-562 leukemia
LOX IMVI melanoma = system: LOX IMVI melanoma
M14 melanoma = system: M14 melanoma
MALME-3M melanoma = system: MALME-3M melanoma
MCF7 breast = system: MCF7 breast
MDA-MB-231 breast = system: MDA-MB-231 breast
MDA-MB-435 = system: MDA-MB-435
MDA-MB-468 breast = system: MDA-MB-468 breast
MOLT-4 leukemia = system: MOLT-4 leukemia
NCI-H23 lung = system: NCI-H23 lung
NCI-H522 lung = system: NCI-H522 lung
NCI/ADR-RES ovarian = system: NCI/ADR-RES ovarian
OVCAR-3 ovarian = system: OVCAR-3 ovarian
OVCAR-4 ovarian = system: OVCAR-4 ovarian
OVCAR-5 ovarian = system: OVCAR-5 ovarian
OVCAR-8 ovarian = system: OVCAR-8 ovarian
RXF 393 renal = system: RXF 393 renal
SF-295 CNS = system: SF-295 CNS
SF-539 CNS = system: SF-539 CNS
SK-MEL-2 melanoma = system: SK-MEL-2 melanoma
SK-MEL-28 melanoma = system: SK-MEL-28 melanoma
SK-MEL-5 melanoma = system: SK-MEL-5 melanoma
SK-OV-3 ovarian = system: SK-OV-3 ovarian
SN12C renal = system: SN12C renal
SNB-19 CNS = system: SNB-19 CNS
SNB-75 CNS = system: SNB-75 CNS
SR leukemia = system: SR leukemia
SW-620 colon = system: SW-620 colon
T-47D breast = system: T-47D breast
TK-10 renal = system: TK-10 renal
U251 CNS = system: U251 CNS
UACC-257 melanoma = system: UACC-257 melanoma
UACC-62 melanoma = system: UACC-62 melanoma
UO-31 renal = system: UO-31 renal

SMILES: CC1=C(C=O)C2=C(C)C3(CC3)[C@@](C)(O)C(=O)C2=C1
- GI50 (786-0 renal): 209 nM
- TGI (786-0 renal): 491 nM
- GI50 (A498 renal): 996 nM
- TGI (A498 renal): 2460 nM
- GI50 (A549 NSCLC): 276 nM
- TGI (A549 NSCLC): 1010 nM
- GI50 (ACHN renal): 229 nM
- TGI (ACHN renal): 543 nM
- GI50 (BT-549 breast): 190 nM
- TGI (BT-549 breast): 440 nM
- GI50 (CAKI-1 renal): 306 nM
- TGI (CAKI-1 renal): 1090 nM
- GI50 (COLO 205 colon): 226 nM
- TGI (COLO 205 colon): 459 nM
- GI50 (DU-145 prostate): 365 nM
- TGI (DU-145 prostate): 1310 nM
- GI50 (EKVX NSCLC): 244 nM
- TGI (EKVX NSCLC): 737 nM
- GI50 (HCC-2998 colon): 179 nM
- TGI (HCC-2998 colon): 338 nM
- GI50 (HCT-116 colon): 161 nM
- TGI (HCT-116 colon): 317 nM
- GI50 (HCT-15 colon): 180 nM
- TGI (HCT-15 colon): 370 nM
- GI50 (HL-60(TB) leukemia): 227 nM
- TGI (HL-60(TB) leukemia): 703 nM
- GI50 (HOP-62 NSCLC): 216 nM
- TGI (HOP-62 NSCLC): 518 nM
- GI50 (HS 578T breast): 259 nM
- TGI (HS 578T breast): 799 nM
- GI50 (IGROV1 ovarian): 236 nM
- TGI (IGROV1 ovarian): 538 nM
- GI50 (K-562 leukemia): 243 nM
- TGI (K-562 leukemia): 765 nM
- GI50 (LOX IMVI melanoma): 153 nM
- TGI (LOX IMVI melanoma): 295 nM
- GI50 (M14 melanoma): 212 nM
- TGI (M14 melanoma): 463 nM
- GI50 (MALME-3M melanoma): 180 nM
- TGI (MALME-3M melanoma): 353 nM
- GI50 (MCF7 breast): 181 nM
- TGI (MCF7 breast): 576 nM
- GI50 (MDA-MB-231 breast): 194 nM
- TGI (MDA-MB-231 breast): 367 nM
- GI50 (MDA-MB-435): 213 nM
- TGI (MDA-MB-435): 495 nM
- GI50 (MDA-MB-468 breast): 159 nM
- TGI (MDA-MB-468 breast): 344 nM
- GI50 (MOLT-4 leukemia): 218 nM
- TGI (MOLT-4 leukemia): 977 nM
- GI50 (NCI-H23 lung): 180 nM
- TGI (NCI-H23 lung): 361 nM
- GI50 (NCI-H522 lung): 171 nM
- TGI (NCI-H522 lung): 333 nM
- GI50 (NCI/ADR-RES ovarian): 321 nM
- TGI (NCI/ADR-RES ovarian): 1310 nM
- GI50 (OVCAR-3 ovarian): 250 nM
- TGI (OVCAR-3 ovarian): 618 nM
- GI50 (OVCAR-4 ovarian): 407 nM
- TGI (OVCAR-4 ovarian): 3990 nM
- GI50 (OVCAR-5 ovarian): 223 nM
- TGI (OVCAR-5 ovarian): 533 nM
- GI50 (OVCAR-8 ovarian): 214 nM
- TGI (OVCAR-8 ovarian): 562 nM
- GI50 (RXF 393 renal): 147 nM
- TGI (RXF 393 renal): 293 nM
- GI50 (SF-295 CNS): 194 nM
- TGI (SF-295 CNS): 387 nM
- GI50 (SF-539 CNS): 178 nM
- TGI (SF-539 CNS): 359 nM
- GI50 (SK-MEL-2 melanoma): 348 nM
- TGI (SK-MEL-2 melanoma): 1180 nM
- GI50 (SK-MEL-28 melanoma): 284 nM
- TGI (SK-MEL-28 melanoma): 781 nM
- GI50 (SK-MEL-5 melanoma): 187 nM
- TGI (SK-MEL-5 melanoma): 381 nM
- GI50 (SK-OV-3 ovarian): 678 nM
- TGI (SK-OV-3 ovarian): 1800 nM
- GI50 (SN12C renal): 221 nM
- TGI (SN12C renal): 523 nM
- GI50 (SNB-19 CNS): 342 nM
- TGI (SNB-19 CNS): 1340 nM
- GI50 (SNB-75 CNS): 176 nM
- TGI (SNB-75 CNS): 547 nM
- GI50 (SR leukemia): 212 nM
- TGI (SR leukemia): 695 nM
- GI50 (SW-620 colon): 255 nM
- TGI (SW-620 colon): 694 nM
- GI50 (T-47D breast): 199 nM
- TGI (T-47D breast): 566 nM
- GI50 (TK-10 renal): 519 nM
- TGI (TK-10 renal): 2320 nM
- GI50 (U251 CNS): 170 nM
- TGI (U251 CNS): 341 nM
- GI50 (UACC-257 melanoma): 188 nM
- TGI (UACC-257 melanoma): 418 nM
- GI50 (UACC-62 melanoma): 179 nM
- TGI (UACC-62 melanoma): 372 nM
- GI50 (UO-31 renal): 170 nM
- TGI (UO-31 renal): 359 nM
